Assay results published in patent US20240245770A1, “COMPOSITIONS AND METHODS FOR TREATING NEUROMUSCULAR DISORDERS” (The Regents of the University of California, priority 2019, published 2024).

Test system: serum cytokine/chemokine/growth factor/ligands of ALS patient
Test: Serum Luminex, before and after NAC treatment
Type: in vivo, human
Experimental: (§1) Serum Luminex. Serum from patients were used to determine the levels of cytokine/chemokine/growth factor/ligands secretion using multiplex luminex assay. Scatter plot was prepared using the levels of cytokine/chemokine/growth factor/ligands in serum obtained at different dates from patients as compared to controls.
Serum Luminex. Serum from patients were used to determine the levels of cytokine/chemokine/growth factor/ligands secretion using multiplex luminex assay.
as §1

[1] = H110 RS post NAC (second line, continues Table 138A)
[2] = JC sera Apr. 5, 2020 (NAC infusion)
[3] = JC sera Apr. 16, 2020 (NAC infusion)
[4] = JC sera Apr. 23, 2020 (NAC infusion)

## CC(=O)N[C@@H](CS)C(=O)O [NAC, N-Acetyl-Cysteine]
41 plex after NAC
  IFN-g, ALS patient compared to healthy twin: 1.6
  IL-2, ALS patient compared to healthy twin: 0.9
  IL-4, ALS patient compared to healthy twin: 1.1
  IL-10, ALS patient compared to healthy twin: 0.95
  IL-12 p70, ALS patient compared to healthy twin: 1.3
  IL-13, ALS patient compared to healthy twin: 0.99
  TNF-a, ALS patient compared to healthy twin: 2.2
After NAC, Ave JC 4/5 to 6/24
  Franktalkine: 34.8
  GM-CSF: 68.8
  IL-4: 12.8
  IL-23: 125.6
  ITAC: 13.34
  MIP-1b: 21.6
Ave JC 4/5 to 6/24
  IFNg: 7.25
  IL-1b: 0.82
  IL-2: 1.45
  IL-6: 1.9
  IL-7: 5.7
  IL-8: 4.4
  IL-10: 7.8
  IL-12p70: 2
  IL-13: 4.32
  IL-17A: 4
  IL-21: 0.7
  MIP-1a: 11.5
  MIP-3a: 8.1
  TNFa: 8.2 pg/mL
Ave JC sera for NAC infusion
  Franktalkine: 34.8 pg/mL
  GM-CSF: 68.8 pg/mL
  IFNg: 7.25 pg/mL
  IL-1b: 0.82 pg/mL
  IL-2: 1.45 pg/mL
  IL-4: 12.8 pg/mL
  IL-6: 1.9 pg/mL
  IL-7: 5.7 pg/mL
  IL-8: 4.4 pg/mL
  IL-10: 7.8 pg/mL
  IL-12p70: 2 pg/mL
  IL-13: 4.32 pg/mL
  IL-17A: 4 pg/mL
  IL-21: 0.7 pg/mL
  IL-23: 125.6 pg/mL
  ITAC: 13.34 pg/mL
  MIP-1a: 11.5 pg/mL
  MIP-1b: 21.6 pg/mL
  MIP-3a: 8.1 pg/mL
  TNFa: 8.2 pg/mL
[1]
  CMD: 1391 pg/mL
  GRO: 2246 pg/mL
  IFNg: 20.14 pg/mL
  IL-1Ra: 247.51 pg/mL
  IL-1a: 43.39 pg/mL
  IL-1b: 6.64 pg/mL
  IL-3: 7.88 pg/mL
  IL-4: 53.81 pg/mL
  IL-5: 38.12 pg/mL
  IL-6: 23.49 pg/mL
  IL-7: 21.7 pg/mL
  IL-8: 16.64 pg/mL
  IL-9: 16.88 pg/mL
  IL-10: 97.95 pg/mL
  IL-12p40: 82.26 pg/mL
  IL-12p70: 13.65 pg/mL
  IL-13: 33.66 pg/mL
  IL-15: 23.97 pg/mL
  IL-17a: 12.34 pg/mL
  IP-10: 646.43 pg/mL
  L-2: 14.54 pg/mL
  MCP1: 846.7 pg/mL
  MCP3: 16.88 pg/mL
  MIP1a: 17.37 pg/mL
  MIP1b: 34.07 pg/mL
  PDGF-AB/BB: 23823 pg/mL
  PDGFaa: 8654 pg/mL
  Rantes: 9480 pg/mL
  TNFa: 30.58 pg/mL
  TNFb: 6.89 pg/mL
  VEGF: 247.51 pg/mL
  sCD40L: 3545 pg/mL
H110 RS post NAC, Aug. 8, 2019
  EGF: 21.91 pg/mL
  Eotaxin: 116.77 pg/mL
  FGF2: 44.55 pg/mL
  FIT3L: 15.11 pg/mL
  Fractalkine: 61.83 pg/mL
  GCSF: 6131 pg/mL
  GMCSF: 26.68 pg/mL
  IFNa2: 31.31 pg/mL
  TGFa: 22.12 pg/mL
JC sera Apr. 5, 2020
  IL-2: 0.14 pg/mL
  IL-4: 18.46 pg/mL
  IL-5: 2.64 pg/mL
  IL-6: 2.74 pg/mL
  IL-7: 5.61 pg/mL
  IL-8: 5.32 pg/mL
  IL-21: 0.82 pg/mL
  IL-23: 144.83 pg/mL
  MIP-1a: 11.35 pg/mL
  MIP-1b: 24.47 pg/mL
  TNFa: 9.39 pg/mL
[2]
  Franktalkine: 39.54 pg/mL
  GM-CSF: 91.74 pg/mL
  IFNg: 11.6 pg/mL
  IL-1b: 0.87 pg/mL
  IL-10: 8.12 pg/mL
  IL-12p70: 2.32 pg/mL
  IL-13: 4.83 pg/mL
  IL-17A: 6.07 pg/mL
  ITAC: 18.73 pg/mL
  MIP-3a: 11.35 pg/mL
JC sera Apr. 16, 2020
  IL-2: 0.32 pg/mL
  IL-4: 11.22 pg/mL
  IL-5: 2.21 pg/mL
  IL-7: 4.9 pg/mL
  IL-8: 3.55 pg/mL
  IL-21: 0.62 pg/mL
  IL-23: 116.26 pg/mL
  MIP-1a: 10.8 pg/mL
  MIP-1b: 18.56 pg/mL
  TNFa: 7.45 pg/mL
[3]
  Franktalkine: 33.33 pg/mL
  GM-CSF: 54.8 pg/mL
  IFNg: 7.11 pg/mL
  IL-1b: 0.65 pg/mL
  IL-10: 4.47 pg/mL
  IL-12p70: 2.1 pg/mL
  IL-13: 4.44 pg/mL
  IL-17A: 3.15 pg/mL
  ITAC: 11.26 pg/mL
  MIP-3a: 5.58 pg/mL
JC sera Apr. 23, 2020
  IL-2: 5.42 pg/mL
  IL-4: 15.94 pg/mL
  IL-5: 2.21 pg/mL
  IL-7: 6.39 pg/mL
  IL-8: 3.72 pg/mL
  IL-21: 0.68 pg/mL
  IL-23: 132.6 pg/mL
  MIP-1a: 11.24 pg/mL
  MIP-1b: 16.32 pg/mL
  TNFa: 7.45 pg/mL
[4]
  Franktalkine: 34.75 pg/mL
  GM-CSF: 84.17 pg/mL
  IFNg: 6.15 pg/mL
  IL-1b: 0.77 pg/mL
  IL-10: 6 pg/mL
  IL-12p70: 2 pg/mL
  IL-13: 4.17 pg/mL
  IL-17A: 2.78 pg/mL
  ITAC: 10.71 pg/mL
  MIP-3a: 6.78 pg/mL
JC sera Apr. 30, 2020
  IL-2: 0.06 pg/mL
  IL-4: 14.43 pg/mL
